Experimental data taken from patent US5714347A (priority 1995, dated 1998).
Like-named read-outs stand apart in the source and are kept apart here.

How the values were obtained:
[1] = system: periplasmic carboxypeptidase in E. coli BL21 (DE3) extracts; format: biochemical
Protocol: The pI shift upon incubation of ubiquitin with carboxypeptidase B was used as a convenient assay to test for carboxyl terminal glycine dipeptide processing in E. coli BL21 (DE3) extracts.
We tested a variety of metal salts for the ability to inhibit ubiquitin inactivation.

[2] = system: A549 human lung carcinoma cell extract; test: In vitro conjugation of 125I-UCRP to cellular proteins; format: biochemical; conditions: for inhibition of 125I-UCRP conjugation by excess unlabeled protein: isotope dilution, parallel incubations
Protocol: Confluent monolayer cultures of A549 human lung carcinoma cells were grown in Dulbecco's modified Eagle's medium supplemented with 10% (v/v) heat-inactivated fetal bovine serum. Cultures were maintained at 37° C. in a humidified 5% CO2 atmosphere. Cultures of A549 cells were induced by adding IFNβ to a final concentration of 1000 IU/ml (Loeb, K. R. and Haas, A. L., supra, 1992). Following 24 hours induction, cells were rinsed twice with PBS then harvested by scraping directly into 50 mM Tris-Cl (pH 7.6) containing 2 mMATP, 10 mM MgCl2, and 1 mM DTT (100 μl/100 mm plate). The cells were then briefly sonicated and the extracts used without further fractionation.

[3] = system: A549 human lung carcinoma cell extract; conditions: previous preparations, Loeb and Haas 1992; Loeb 1993; cited from earlier work
[4] = system: rabbit reticulocyte ubiquitin activating enzyme (E1); conditions: cited from earlier work
[5] = system: rabbit reticulocyte ubiquitin activating enzyme (E1); format: biochemical
Protocol: The incorporation of ^32 PPi into ATP was measured by adsorbing the resulting ^32 P-labeled ATP onto charcoal and counting the bound radioactivity by Cerenkov radiation (Haas, A. L. and Rose, I. A., supra, 1982). Nonspecifically-bound ^32 PPi was corrected by subtracting radioactivity in control incubations conducted in the absence of added E1 (Haas, A. L. and Rose, I. A., supra, 1982).
Since these measurements were conducted in the absence of added AMP, the kinetic constants reflect step 3 of the E1 reaction involving formation of the final ternary complex (Haas, A. L. and Rose, I. A. J. Biol. Chem., .supra, 1982).

carboxypeptidase B = test: pI shift assay (isoelectric focusing after carboxypeptidase B) for intact carboxyl terminal glycine dipeptide
Text: Previous work has shown that the carboxyl terminal glycine dipeptide of ubiquitin is acutely sensitive to cleavage by trypsin-like activities (Haas, A. L., et al., J. Biol. Chem. 260:4694-4703, 1985; Wilkinson, K. D. and Audhya, T. K., J. Biol. Chem. 256:9235-9241, 1981). […] The specificity of carboxypeptidase B for lysine and arginine precludes a similar pI shift for intact ubiquitin in which R74 is masked by the glycine dipeptide (Haas, A. L., et al., supra, 1985).

[6] = target: T1, ubiquitin activating enzyme (E1) (Oryctolagus cuniculus, UniProt Q29504); test: Stoichiometry and kinetics of E1-bound adenylate formation (TCA-precipitable radioactivity with [2,8-3H]ATP); format: biochemical; conditions: for [3H]adenylate formation: 1 pmol of E1, inorganic pyrophosphatase
T1 construct: from rabbit reticulocytes, rabbit liver, and human erythrocytes; from tissue; host or cells: rabbit reticulocytes (inferred for this assay)
T1 sequence (Q29504 1-1058): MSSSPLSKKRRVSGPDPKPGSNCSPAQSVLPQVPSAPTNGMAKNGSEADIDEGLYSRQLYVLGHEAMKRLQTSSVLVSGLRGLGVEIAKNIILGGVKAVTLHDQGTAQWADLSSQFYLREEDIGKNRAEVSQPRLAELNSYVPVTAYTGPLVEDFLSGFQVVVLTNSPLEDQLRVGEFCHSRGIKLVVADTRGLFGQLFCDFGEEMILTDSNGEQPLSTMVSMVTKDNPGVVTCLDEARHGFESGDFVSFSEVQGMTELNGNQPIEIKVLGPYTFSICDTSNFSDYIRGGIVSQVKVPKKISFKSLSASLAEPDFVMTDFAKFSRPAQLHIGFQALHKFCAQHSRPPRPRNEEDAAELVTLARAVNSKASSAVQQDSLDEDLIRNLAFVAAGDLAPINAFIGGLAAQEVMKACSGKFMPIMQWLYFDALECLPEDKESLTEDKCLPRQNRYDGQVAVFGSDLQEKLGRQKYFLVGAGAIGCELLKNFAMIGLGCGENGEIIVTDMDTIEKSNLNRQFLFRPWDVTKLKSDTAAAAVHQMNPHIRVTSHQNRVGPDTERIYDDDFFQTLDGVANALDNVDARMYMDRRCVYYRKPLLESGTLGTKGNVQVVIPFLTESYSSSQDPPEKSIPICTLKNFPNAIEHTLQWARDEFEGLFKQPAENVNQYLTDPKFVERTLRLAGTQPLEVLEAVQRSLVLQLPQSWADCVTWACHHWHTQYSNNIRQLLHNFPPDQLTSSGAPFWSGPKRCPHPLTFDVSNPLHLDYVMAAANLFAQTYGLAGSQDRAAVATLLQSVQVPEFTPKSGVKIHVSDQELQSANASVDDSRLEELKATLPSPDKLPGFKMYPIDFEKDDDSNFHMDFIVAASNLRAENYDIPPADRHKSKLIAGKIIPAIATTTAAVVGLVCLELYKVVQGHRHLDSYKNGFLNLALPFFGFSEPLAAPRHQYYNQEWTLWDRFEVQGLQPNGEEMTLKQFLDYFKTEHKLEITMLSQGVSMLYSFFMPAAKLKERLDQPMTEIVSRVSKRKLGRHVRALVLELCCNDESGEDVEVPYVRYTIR
Text: Recent studies by Burch and Haas have shown that mutagenesis of specific ubiquitin residues sufficiently compromises binding of the resulting adenylate within the E1 active site to allow dissociation of the intermediate (Burch, T. J. and Haas, A. L., supra, 1994). The free but not the bound pool of ubiquitin [^3 H]adenylate is sensitive to cleavage by ubiquitin carboxyl terminal hydrolase (Burch, T. J. and Haas, A. L., supra, 1994; Pickart, C. M. and Rose, I. A., J. Biol. Chem. 260:7903-7910,1985).

[Cl][Cd][Cl] [CdCl2]
inhibiting UCRP inactivation [1]: effective

[Cl-].[Cl-].[Co+2] [CoCl2]
ubiquitin and UCRP glycine dipeptide excision ([1]; 5 mM): quantitatively blocks
inhibiting ubiquitin inactivation ([1]; among the metal salts tested): most effective

^125 I-UCRP: Intact UCRP isolated in the presence of CoCl2, labeled with 125I
dependence of conjugation on ATP and ATP regenerating system ([2]; both extracts): absolutely dependent
rate of conjugation to cellular proteins ([2]; extracts from A549 cultures induced 24 hours with 1000 IU/ml interferon-β (+IFN), versus uninduced): significantly greater
rate of conjugation to cellular proteins ([2]; extracts from uninduced cells (-IFN), 90 minutes incubation): low but measurable rate

recombinant ^125 I-UCRP: Radioiodinated recombinant UCRP of the previous, proteolytically inactivated preparations
conjugation when added to fresh extracts of A549 cells [3]: unable to demonstrate conjugation

pure intact native UCRP: Pure intact native UCRP, K1/2 from Narasimhan et al. 1996
K1/2 ([4]; pure intact native UCRP, Narasimhan et al. 1996 in press): 24 µM

UCRP generated from UCRP-R: Intact UCRP resulting from removal of the arginine cap of purified UCRP-R
K1/2 ([5]; UCRP 5 to 50 μM, 20 nM E1, 37° C., absence of added AMP (step 3)): 24 µM
pI shift upon incubation with carboxypeptidase B (carboxypeptidase B): absence of a pI shift

O=C(O)CN(CCN(CC(=O)O)CC(=O)O)CC(=O)O [EDTA]
rate of ubiquitin inactivation [1]: stimulated

[Cl][Hg][Cl] [HgCl2]
inhibiting UCRP inactivation [1]: effective

ubiquitin cross-reactive protein [UCRP]
first order rate constant of [3H]adenylate formation [6]: 0.42 min⁻¹
[3H]adenylate formation ([6]; after 5 minutes): 0.11 pmol
K1/2 [5]: 24 µM
substrate inhibition [5]: no substrate inhibition
inhibition of 125I-UCRP conjugation by excess unlabeled protein [2]: marked inhibition

ubiquitin
first order rate constant of [3H]adenylate formation [6]: ≥ 6 min⁻¹
[3H]adenylate formation ([6]; within a 1 minute incubation): equivalent amount
K1/2 ([4]; step 3 of ubiquitin-supported reaction, values taken from Haas and Rose 1982): 1.2 µM
substrate inhibition ([4]; ubiquitin at high concentrations, Haas and Rose 1982): pronounced substrate inhibition
kcat ([4]; ubiquitin-supported reaction, values taken from Haas and Rose 1982): 9.6 s⁻¹
inhibition of 125I-UCRP conjugation by excess unlabeled protein [2]: not
